The text below walks through data of ChEMBL document CHEMBL4251700, “Novel Staphyloxanthin Inhibitors with Improved Potency against Multidrug Resistant Staphylococcus aureus” (ACS Med Chem Lett, 2018).

Data set [1] deals with T1, 4,4'-diapophytoene desaturase (4,4'-diaponeurosporene-forming) (Staphylococcus aureus (strain Newman), UniProt O07855).
T1 sequence (O07855 whole entry): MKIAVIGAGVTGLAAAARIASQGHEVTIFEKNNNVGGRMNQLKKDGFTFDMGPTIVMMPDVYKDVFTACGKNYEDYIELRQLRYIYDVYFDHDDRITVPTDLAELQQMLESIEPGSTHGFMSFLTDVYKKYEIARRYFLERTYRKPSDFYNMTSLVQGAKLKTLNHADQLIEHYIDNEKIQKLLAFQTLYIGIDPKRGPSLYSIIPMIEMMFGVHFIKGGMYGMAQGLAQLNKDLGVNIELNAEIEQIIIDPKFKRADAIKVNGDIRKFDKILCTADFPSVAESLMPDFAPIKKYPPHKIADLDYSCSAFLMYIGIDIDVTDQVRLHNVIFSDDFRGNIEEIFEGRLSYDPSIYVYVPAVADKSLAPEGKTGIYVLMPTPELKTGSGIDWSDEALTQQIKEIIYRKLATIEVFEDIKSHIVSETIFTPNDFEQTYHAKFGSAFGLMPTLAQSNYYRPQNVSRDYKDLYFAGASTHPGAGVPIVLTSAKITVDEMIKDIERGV
Put plainly: Inhibition of CrtN in Staphylococcus aureus Newman assessed as reduction in staphyloxanthin levels after 48 hrs by spectrophotometric method-based pigment inhibition assay. Also on record: species or system Staphylococcus aureus subsp. aureus str. Newman.

Data set [2] addresses Voltage-gated inwardly rectifying potassium channel KCNH2 (Homo sapiens, UniProt Q12809). As to the kind of experiment: Inhibition of recombinant human ERG expressed in CHO cells at -80 mV holding potential measured after 3 minutes by automated whole cell patch clamp Qpatch method. The class given is cell-based. Background: In patch-clamp work, channel activity is measured electrically.

Data set [3] is described as follows: Solubility of the compound in water at 10 mg measured after 24 hrs by HPLC method. The class given is physicochemical.
Data set [4] addresses T2, 4,4'-diapophytoene desaturase (4,4'-diaponeurosporene-forming) (Staphylococcus aureus (strain MW2), UniProt Q8NUQ6).
T2 sequence (Q8NUQ6 whole entry): T1 sequence (O07855 whole entry) with R500Q
As to the kind of experiment: Inhibition of CrtN in methicillin-resistant Staphylococcus aureus USA400 MW2 assessed as reduction in staphyloxanthin levels after 48 hrs by spectrophotometric method-based pigment inhibition assay. Set-up: species or system Staphylococcus aureus subsp. aureus MW2.

Data set [5] addresses T2, 4,4'-diapophytoene desaturase (4,4'-diaponeurosporene-forming). Put plainly: Inhibition of CrtN in methicillin-resistant Staphylococcus aureus LAC USA300 assessed as reduction in staphyloxanthin levels after 48 hrs by spectrophotometric method-based pigment inhibition assay. Also on record: species or system Staphylococcus aureus subsp. aureus USA300.
The target of data set [6] is T3, 4,4'-diapophytoene desaturase (4,4'-diaponeurosporene-forming) (Staphylococcus aureus (strain Mu50 / ATCC 700699), UniProt Q99R76).
T3 sequence (Q99R76 whole entry): T1 sequence (O07855 whole entry)
Put plainly: Inhibition of CrtN in vancomycin-intermediate Staphylococcus aureus Mu50 assessed as reduction in staphyloxanthin levels after 48 hrs by spectrophotometric method-based pigment inhibition assay. Also on record: species or system Staphylococcus aureus subsp. aureus Mu50.

The target of data set [7] is T1, 4,4'-diapophytoene desaturase (4,4'-diaponeurosporene-forming). Put plainly: Inhibition of CrtN in linezolid-resistant Staphylococcus aureus NRS271 assessed as reduction in staphyloxanthin levels after 48 hrs by spectrophotometric method-based pigment inhibition assay.
Data set [8] has the same target. Put plainly: Inhibition of Staphylococcus aureus Newman […]-tagged CrtN expressed in Escherichia coli BL21(DE3))/pET28a::CrtN assessed as reduction in staphyloxanthin levels using diapophytoene as substrate after overnight incubation. Also on record: species or system Staphylococcus aureus subsp. aureus str. Newman.
Data set [9] concerns Staphylococcus aureus. As to the kind of experiment: Antibacterial activity against vancomycin-intermediate Staphylococcus aureus Mu50 infected in BALB/c mouse assessed as reduction of bacterial burden in liver at 0.4 mg, ip bid administered at 12 hrs prior to bacterial infection dosed at 12 intervals for 4.5 days. Format: functional, organism-based.
For data set [10], the system named is Staphylococcus aureus. Put plainly: Antibacterial activity against vancomycin-intermediate Staphylococcus aureus Mu50 infected in BALB/c mouse assessed as reduction of bacterial burden in liver at 0.1 mg, ip bid administered at 12 hrs prior to bacterial infection dosed at 12 intervals for 4.5 days. Format: functional, organism-based.
The test system of data set [11] is Staphylococcus aureus. As to the kind of experiment: Antibacterial activity against vancomycin-intermediate Staphylococcus aureus Mu50 infected in BALB/c mouse assessed as reduction of bacterial burden in liver at 0.1 mg, ip bid for 3.5 days administered 6 hrs post bacterial infection measured 84 hrs post infection. Format: functional, organism-based.
For data set [12], the system named is Staphylococcus aureus. Put plainly: Antibacterial activity against vancomycin-intermediate Staphylococcus aureus Mu50 infected in BALB/c mouse assessed as reduction of bacterial burden in liver at 0.4 mg, ip bid for 3.5 days administered 6 hrs post bacterial infection measured 84 hrs post infection. Format: functional, organism-based.
In data set [13] the test system is Staphylococcus aureus. Put plainly: Antibacterial activity against vancomycin-intermediate Staphylococcus aureus Mu50 infected in BALB/c mouse assessed as reduction of bacterial burden in heart at 0.1 mg, ip bid for 3.5 days administered 6 hrs post bacterial infection measured 84 hrs post infection relative to control. Format: functional.
Data set [14] deals with Staphylococcus aureus. As to the kind of experiment: Antibacterial activity against vancomycin-intermediate Staphylococcus aureus Mu50 infected in BALB/c mouse assessed as reduction of bacterial burden in heart at 0.4 mg, ip bid for 3.5 days administered 6 hrs post bacterial infection measured 84 hrs post infection relative to control. The class given is functional.
Data set [15] deals with Staphylococcus aureus. As to the kind of experiment: Antibacterial activity against linezolid-resistant Staphylococcus aureus NRS271 infected in BALB/c mouse assessed as reduction of bacterial burden in liver at 0.1 mg, ip bid administered at 12 hrs prior to bacterial infection dosed at 12 intervals for 4.5 days. Format: functional, organism-based.
Data set [16] concerns Staphylococcus aureus. As to the kind of experiment: Antibacterial activity against linezolid-resistant Staphylococcus aureus NRS271 infected in BALB/c mouse assessed as reduction of bacterial burden in heart at 0.4 mg, ip bid administered at 24 hrs prior to bacterial infection dosed at 12 intervals for 4.5 days.
Data set [17] has as its system Staphylococcus aureus. Put plainly: Antibacterial activity against linezolid-resistant Staphylococcus aureus NRS271 infected in BALB/c mouse assessed as reduction of bacterial burden in heart at 0.1 mg, ip bid administered at 24 hrs prior to bacterial infection dosed at 12 intervals for 4.5 days.
The subject of data set [18] is Staphylococcus aureus. Put plainly: Antibacterial activity against linezolid-resistant Staphylococcus aureus NRS271 infected in BALB/c mouse assessed as reduction of bacterial burden in liver at 0.4 mg, ip bid administered at 12 hrs prior to bacterial infection dosed at 12 intervals for 4.5 days. Format: functional, organism-based.
Data set [19] can be described thus: Half life in human liver microsomes at 2 uM by LC-MS/MS analysis. Format: ADME, microsome. A general note: Liver microsomes are vesicles of endoplasmic reticulum, rich in cytochrome P450 enzymes.

Numbering of substitutions follows the chain as printed. The source made the active and inactive calls.

Voltage-gated inwardly rectifying potassium channel KCNH2, sequence (Q12809 whole entry): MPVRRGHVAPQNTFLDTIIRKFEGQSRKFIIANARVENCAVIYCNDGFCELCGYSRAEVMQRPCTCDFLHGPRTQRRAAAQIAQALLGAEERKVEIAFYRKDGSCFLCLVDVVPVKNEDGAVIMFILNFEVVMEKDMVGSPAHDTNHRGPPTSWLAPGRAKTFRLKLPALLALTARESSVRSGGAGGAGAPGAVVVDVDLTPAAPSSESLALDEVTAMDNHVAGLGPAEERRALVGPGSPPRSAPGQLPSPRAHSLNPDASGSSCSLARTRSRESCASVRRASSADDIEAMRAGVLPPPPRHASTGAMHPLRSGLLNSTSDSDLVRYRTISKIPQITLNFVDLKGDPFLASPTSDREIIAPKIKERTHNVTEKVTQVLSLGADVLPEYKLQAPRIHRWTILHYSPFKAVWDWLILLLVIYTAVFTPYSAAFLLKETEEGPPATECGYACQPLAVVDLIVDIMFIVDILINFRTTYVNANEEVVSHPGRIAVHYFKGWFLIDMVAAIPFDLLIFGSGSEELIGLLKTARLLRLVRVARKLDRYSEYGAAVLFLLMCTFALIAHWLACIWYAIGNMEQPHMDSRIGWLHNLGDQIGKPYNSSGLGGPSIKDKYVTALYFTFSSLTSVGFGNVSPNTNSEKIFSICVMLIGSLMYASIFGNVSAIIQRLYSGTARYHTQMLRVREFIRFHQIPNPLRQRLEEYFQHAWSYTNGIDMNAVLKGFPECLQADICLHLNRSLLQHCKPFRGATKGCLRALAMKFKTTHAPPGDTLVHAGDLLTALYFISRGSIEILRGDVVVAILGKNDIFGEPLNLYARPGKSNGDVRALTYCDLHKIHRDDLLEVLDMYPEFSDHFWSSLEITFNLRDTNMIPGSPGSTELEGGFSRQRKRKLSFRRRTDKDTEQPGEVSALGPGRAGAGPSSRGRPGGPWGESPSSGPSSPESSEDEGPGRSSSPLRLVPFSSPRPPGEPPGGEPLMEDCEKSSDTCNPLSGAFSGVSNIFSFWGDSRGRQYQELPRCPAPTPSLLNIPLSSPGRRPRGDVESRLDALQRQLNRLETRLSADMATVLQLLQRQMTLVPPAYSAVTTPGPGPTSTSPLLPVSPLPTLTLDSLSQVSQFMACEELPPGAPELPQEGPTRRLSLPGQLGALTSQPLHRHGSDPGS

As to `CN(C/C=C/c1cccc(Cl)c1)Cc1ccc2c(c1)OCCO2`, the IC50 in data set [1] was 112 nM.
For the compound `CN(C/C=C/c1ccccc1)Cc1ccc2c(c1)OCCO2`, the IC50 in data set [1] was found to be 371 nM.
The same measure, in the same setting: the same measure for `CN(C/C=C/c1cccc2ccccc12)Cc1ccc2c(c1)OCCO2`: over 1000 nM.
Still for that read-out and setting: the value for `CN(C/C=C/c1cccc([N+](=O)[O-])c1)Cc1ccc2c(c1)OCCO2` was over 1000 nM.
On the same count and under the same terms, the same measure for `COc1ccc(/C=C/CN(C)Cc2ccc3c(c2)OCCO3)cc1`: 48.6 nM; for `CN(C/C=C/c1ccc(C#N)cc1)Cc1ccc2c(c1)OCCO2`: 19.2 nM; for `CN(C/C=C/c1ccc(-c2ccccc2)cc1)Cc1ccc2c(c1)OCCO2`: 4.1 nM.
For the compound `CN(C/C=C/c1ccc(C(F)(F)F)cc1F)Cc1ccc2c(c1)OCCO2`, in [1], the IC50 came to 8.8 nM.
As for `Cc1ccc(/C=C/CN(C)Cc2ccc3c(c2)OCCO3)cc1.Cl`, the IC50 in data set [1] was 3.2 nM; in [2], 4600 nM. In data set [3], this compound came in with a solubility at 24 h of 6500 µg/mL.
With `COc1ccc(/C=C/CN(C)Cc2ccc3c(c2)CCCCC3)cc1.Cl`, the concentration in solution in data set [3] (solubility at 24 h) was 4200 µg/mL. Moreover, the values for the IC50 in data set [4] and in [5] were 7.1 nM and 7.7 nM, respectively.
With `COc1cccc(/C=C/CN(C)Cc2ccc3c(c2)OCCO3)c1`, the IC50 in data set [1] is over 1000 nM.
The same measure, in the same setting: the same measure for `CN(C/C=C/c1ccc(Br)cc1)Cc1ccc2c(c1)OCCO2`: 8.2 nM; for `Cc1cccc(/C=C/CN(C)Cc2ccc3c(c2)OCCO3)c1`: 43.4 nM; for `CN(C/C=C/c1ccccc1Cl)Cc1ccc2c(c1)OCCO2`: 90.3 nM.
Regarding `CN(C/C=C/c1ccc(F)cc1)Cc1ccc2c(c1)OCCO2`, the IC50 in data set [1] turned out to be 20.1 nM.
The same measure, in the same setting: the value for `CN(C/C=C/c1cccs1)Cc1ccc2c(c1)OCCO2` was 221 nM; that for `CN(C/C=C/c1ccc(C(C)(C)C)cc1)Cc1ccc2c(c1)OCCO2` was 156 nM.
Take `CN(C/C=C/c1cccc(C(F)(F)F)c1)Cc1ccc2c(c1)OCCO2`: the IC50 in data set [1] was over 1000 nM.
For the compound `CN(C/C=C/c1ccccc1C(F)(F)F)Cc1ccc2c(c1)OCCO2`, the IC50 in [1] was over 1000 nM.
Still for that read-out and setting: the same measure for `COc1ccccc1/C=C/CN(C)Cc1ccc2c(c1)OCCO2`: over 1000 nM.
Turning to `CN(C/C=C/C=C/C=C/c1ccc(C(F)(F)F)cc1)Cc1ccc2c(c1)OCCO2.Cl`, the IC50 in [1] is 1.6 nM; in [2], 8700 nM; in data set [6] it was 1.2 nM; in data set [7] it was 0.4 nM; in data set [4], 5.3 nM; in data set [8], 258 nM. Also, in [5], the IC50 was found to be 3.7 nM. The solubility at 24 h in data set [3] came out at 3300 µg/mL.
In the case of `C/C=C/CN(C)Cc1ccc2c(c1)OCCO2`, the IC50 in data set [1] was over 1000 nM.
Take `CN(C/C=C/C1CCCC1)Cc1ccc2c(c1)OCCO2`: the IC50 in [1] turned out to be 321 nM.
`CN[C@H](CC(C)C)C(=O)N[C@H]1C(=O)N[C@@H](CC(N)=O)C(=O)N[C@H]2C(=O)N[C@H]3C(=O)N[C@H](C(=O)N[C@H](C(=O)O)c4cc(O)cc(O)c4-c4cc3ccc4O)[C@H](O)c3ccc(c(Cl)c3)Oc3cc2cc(c3O[C@@H]2O[C@H](CO)[C@@H](O)[C@H](O)[C@H]2O[C@H]2C[C@](C)(N)[C@H](O)[C@H](C)O2)Oc2ccc(cc2Cl)[C@H]1O`: the result in data set [9], in [10], in data set [11], in data set [12], in data set [13] and in [14] was Active.
As to `CN(C/C=C/c1ccco1)Cc1ccc2c(c1)OCCO2`, the IC50 in data set [1] was determined as 228 nM.
On the same count and under the same terms, the same measure for `CN(C/C=C/c1ccc(C(F)(F)F)c(F)c1)Cc1ccc2c(c1)OCCO2`: 13.7 nM.
On the same count and under the same terms, the value for `CN(C/C=C/c1ccc(Cl)cc1)Cc1ccc2c(c1)OCCO2` was 6.7 nM.
Turning to `CCOc1ccc(/C=C/CN(C)Cc2ccc3c(c2)OCCO3)cc1`, in [1], the IC50 was 8.2 nM.
`CN(C/C=C/c1ccc(C(F)(F)F)cc1)Cc1ccc2c(c1)OCCO2.Cl`: the IC50 in data set [1] is 2.9 nM; in [6], 1.2 nM; in data set [7], 1.1 nM; in [4] it was 6.5 nM; in data set [8] it was 341 nM; in [5], 5.9 nM. This compound also gave a solubility at 24 h in data set [3] of 13500 µg/mL.
In the case of `CC(=O)NC[C@H]1CN(c2ccc(N3CCOCC3)c(F)c2)C(=O)O1`, the result in data set [15], in data set [16], in data set [9], in [10], in data set [11] and in [12] was Active. In addition, the result in [17], in data set [13], in [18] and in data set [14] was Active.
`CN(C/C=C/c1ccccc1[N+](=O)[O-])Cc1ccc2c(c1)OCCO2`: in data set [1], the IC50 was over 1000 nM.
Take `COc1ccc(/C=C/CN(C)Cc2ccc3c(c2)OCCO3)c(F)c1`: the IC50 in data set [1] stood at 43.5 nM.
Regarding `Cc1ccccc1/C=C/CN(C)Cc1ccc2c(c1)OCCO2`, the IC50 in [1] is over 1000 nM.
In data set [3], `CN(C/C=C/c1ccc(C(F)(F)F)cc1)Cc1ccc2c(c1)CCCC2.Cl` returned a solubility at 24 h of 690 µg/mL.
On to `Cc1ncc2n1-c1ccc(Cl)cc1C(c1ccccc1F)=NC2` [MIDAZOLAM], for which, in data set [19], the half-life at 2 µM worked out at 4.2 min.
With `CN(C/C=C/c1ccc([N+](=O)[O-])cc1)Cc1ccc2c(c1)OCCO2`, in [1], the concentration for half-maximal inhibition (IC50) came out at 18.9 nM.
Same read-out and setting: the same measure for `CN(C/C=C/c1ccccc1F)Cc1ccc2c(c1)OCCO2`: over 1000 nM.
The same measure, in the same setting: the value for `COc1ccc(/C=C/CN(C)Cc2ccc3c(c2)OCCO3)cc1F` was 57.9 nM; that for `CN(C/C=C/c1ccc(Cl)cc1Cl)Cc1ccc2c(c1)OCCO2` was 15 nM.
Same read-out and setting: the value for `CN(C/C=C/C1CCCCC1)Cc1ccc2c(c1)OCCO2` was over 1000 nM; that for `CN(C/C=C/c1cccc(F)c1)Cc1ccc2c(c1)OCCO2` was over 1000 nM.

Usually IC50 stands for the midpoint of a concentration-inhibition curve. As usually defined, the solubility is the concentration that dissolves in the medium under given conditions. Low values mean a poorly soluble substance, high ones a readily soluble substance. By half-life is commonly meant the time needed for the level to fall by half in the phase considered.
